Where “and” joins values, the source holds several entries; their conditions need not be identical. Equal values may be shown once. Read-outs that look alike come from different tables or passages of the source. Square brackets hold non-standard residues; d marks the D form. Ends that are not written are not given here. Peptide text beside a SMILES is read from it. Pro(trans-4-F) = O=C(O)[C@@H]1C[C@@H](F)CN1; Pro(cis-4-F) = O=C(O)[C@@H]1C[C@H](F)CN1
Assays:
[1] = biological target: T1, Vinexin β SH3.3 domain (Homo sapiens, UniProt O60504); assay: NMR titration, 1H-15N HSQC chemical shift perturbations of 15N-labelled SH3 domain; format: binding
T1 construct: The Vinexin β SH3.3 was obtained using recombinant expression of a glutathione-S-transferase (GST) fusion protein; GST (N, cleaved yes); made in house; host or cells: Escherichia coli (pGEX plasmids)
T1 sequence (O60504 612-671 limits assumed): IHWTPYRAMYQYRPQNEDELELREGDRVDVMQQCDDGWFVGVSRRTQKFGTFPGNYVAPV
Experimental: In order to measure the binding affinities between the Vinexin β SH3.3 domain and the model peptides, a titration experiment was performed where increasing amounts of peptide were added to a solution of ^15 N-labelled SH3 domain. Apart from MpRS and MpSR peptides, a titration was also performed with a non-fluorinated reference peptide. Just as for most SH3–PRM interaction studies, a gradual frequency shift of a subset of ^1 H– ^15 N correlation peaks in the ^1 H– ^15 N HSQC spectra was observed, indicative of fast exchange between bound and free states of the protein (Fig. 6a). Under this exchange regime, the chemical shifts provide an accurate measure of the bound protein fraction, enabling the determination of an equilibrium dissociation constant Kd (vide infra).
The MpRS and MpSR peptides were produced by solid-phase synthesis using fluorenylmethyloxycarbonyl (Fmoc) amino acids using a model 431A peptide synthesizer from Applied Biosystems (Foster City, CA, USA). Fmoc-protected (4 R )- and (4 S )-FPro amino acids were purchased from Bachem SA. Peptides were purified by reversed-phase HPLC and checked by electrospray ionization and time of flight mass spectrometry (ESI-TOF). The Vinexin β SH3.3 was obtained using recombinant expression of a glutathione-S-transferase (GST) fusion protein in Escherichia coli using pGEX plasmids (Lalevée et al., 2010). After thrombin cleavage, the protein was purified using size-exclusion chromatography and eluted with phosphate buffer (40 mM phosphate, NaCl 100 mM, DTT 2 mM, pH 7). Before titration experiments, a dialysis was performed using 1 and 3 kDa cut-off membrane for the peptide and the protein, respectively, and a common dialysis bath containing the buffer used in interaction experiments. Protein concentrations were determined by measuring the optical density (OD) at 280 nm (molar absorption coefficient 11 460 M ^-1 cm ^-1 ). Peptide concentrations were measured by ^1 H NMR by comparing the integrals of peptide resonances with those of tryptophan of known concentration in a sample containing small amounts (10–30 µM ) of both compounds in D 2 O as described (Kohler et al., 2015). For assignments, lyophilized powder of MpRS and MpSR peptides were dissolved in 170 µL of D 2 O for a final concentration of 1 mM in 3 mm tubes.
Titrations were performed by successive addition of stock peptide solutions to a sample of SH3 protein at 314 µM in a 3 mm NMR tube. In order to reduce the dilution of the initial protein solution and keep the aliquot volumes within values compatible with low pipetting errors (1 to 3 µL ), initial aliquots were added using stock solutions diluted by a factor of 2. The concentrations of the stock solutions were 5.1 and 5.7 mM for MpSR and MpRS, respectively. For every titration point, a 1D ^19 F spectrum and a ^1 H– ^15 N HSQC were recorded at 298K on the same spectrometer, taking advantage of the QCI-F probe. The ^1 H– ^15 N HSQC was recorded using the standard pulse sequence and a 3-9-19 WATERGATE water suppression element. The 200 points were recorded in the indirect dimension to achieve a final resolution of 7.0 and 18.8 Hz per point in the acquisition and indirect dimensions, respectively. The relaxation delay was set to 1 s resulting in a total acquisition time of 16 min. The 1D ^19 F spectra were recorded with a spectral width of 22.522 kHz. The number of scans was adapted to achieve a sufficient signal-to-noise ratio for each concentration of peptide. For the first titration point, at a peptide concentration of 50 µM , 1600 scans were recorded for a total acquisition time of 1 h and 6 min, while 250 scans (10 min acquisition time) were used for the large peptide concentrations.
The composite chemical shift was calculated using […], where ΔδN and ΔδH are the ^15 N and proton chemical shift differences measured between the free protein and the protein in the presence of a given amount of peptide. […]

[2] = biological target: T1, Vinexin β SH3.3 domain; assay: 19F line width (apparent transverse relaxation) analysis of binding kinetics during titration; details: fast exchange approximation, 298 K
Experimental: The exchange line broadening during the titration experiment also reports on the binding kinetics. Thus, the major ^19 F peaks were fitted using a Lorentzian line shape and the line widths obtained in this way provide an estimate of the apparent transverse relaxation constant R2‡ as a function of peptide concentration (Fig. 7b and c), which can be used to derive the binding kinetics. […]
Processing of 1D ^19 F spectra and quantification were performed using an open-source Python package dedicated to Fourier spectroscopies called “Spectrometry Processing Innovative Kernel” (SPIKE) (Chiron et al., 2016). […] Line fitting was done using the least-square minimizer of the Scipy optimize toolbox to find the optimal set of the signal parameters minimizing the squared differences between the experimental and calculated spectra. […]
Titrations were performed by successive addition of stock peptide solutions to a sample of SH3 protein at 314 µM in a 3 mm NMR tube. […] For every titration point, a 1D ^19 F spectrum and a ^1 H– ^15 N HSQC were recorded at 298K on the same spectrometer, taking advantage of the QCI-F probe. The ^1 H– ^15 N HSQC was recorded using the standard pulse sequence and a 3-9-19 WATERGATE water suppression element. The 200 points were recorded in the indirect dimension to achieve a final resolution of 7.0 and 18.8 Hz per point in the acquisition and indirect dimensions, respectively. […]

[3] = biological target: T2, Vinexin β SH3.3 domain (third SH3 domain of the Vinexin β protein) (UniProt O60504 612-671); assay: NMR titration; same kind of titration, 298 K; only the 1H-15N chemical shift perturbations of the SH3 domain fitted, 1:1 model; details: both partners purified
T2 construct: Vinexin β, third SH3 domain (SH3.3); 15N-labelled for the titrations; source: E. coli, GST fusion protein (pGEX plasmids), thrombin cleavage, purified (size-exclusion chromatography)
T2 sequence (looked up): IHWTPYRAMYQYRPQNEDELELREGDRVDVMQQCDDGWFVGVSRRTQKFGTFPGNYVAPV

[4] = biological target: T2, Vinexin β SH3.3 domain (third SH3 …); assay: NMR titration; 19F line widths (apparent R2) of the peptide against peptide concentration during the titration, fast-exchange approximation; kon fitted independently for each 19F signal, Kd taken from the shift fit; details: both partners purified
[5] = biological target: T2, Vinexin β SH3.3 domain (third SH3 …); assay: NMR titration; peptide stock added stepwise to 15N-labelled SH3 at 314 µM in a 3 mm tube, 298 K; 19F shifts of the peptide and 1H/15N shifts of the SH3 fitted simultaneously; 1:1 and 1:2 models compared; details: both partners purified

CC(C)[C@H](NC(=O)[C@H](CCCNC(=N)N)NC(=O)[C@@H]1CCCN1C(=O)[C@@H]1CCCN1C(=O)[C@@H]1CCCN1C(=O)[C@@H]1CCCN1C(=O)[C@@H]1CCCN1C(=O)[C@H](CO)NC(=O)[C@@H]1CCCN1C(=O)[C@@H]1CCCN1C(=O)[C@@H]1CCCN1C(=O)[C@@H]1CCCN1C(=O)[C@@H]1CCCN1)C(=O)N[C@@H](Cc1ccc(O)cc1)C(=O)N[C@@H](CCCCN)C(=O)O [non-fluorinated peptide] (H-PPPPPSPPPPPRVYK-OH; N-terminus and C-terminus assumed)
1H-15N composite chemical shift perturbation, Asn 15 ([1]; Vinexin β residue Asn 15): 1.093
1H-15N composite chemical shift perturbation, Asp 17 ([1]; Vinexin β residue Asp 17): 2.276
1H-15N composite chemical shift perturbation, Gln 14 ([1]; Vinexin β residue Gln 14): 1.949
1H-15N composite chemical shift perturbation, Gly 49 ([1]; Vinexin β residue Gly 49): 0.812
1H-15N composite chemical shift perturbation, Leu 21 ([1]; Vinexin β residue Leu 21): 0.988
1H-15N composite chemical shift perturbation, Thr 50 ([1]; Vinexin β residue Thr 50): 1.881
1H-15N composite chemical shift perturbation, Trp 37 ([1]; Vinexin β residue Trp 37): 2.011
1H-15N composite chemical shift perturbation, Val 39 ([1]; Vinexin β residue Val 39): 3.214
1H-15N composite chemical shift perturbation, Val 56 ([1]; Vinexin β residue Val 56): 1.319

CC(C)[C@H](NC(=O)[C@H](CCCNC(=N)N)NC(=O)[C@@H]1CCCN1C(=O)[C@@H]1CCCN1C(=O)[C@@H]1CCCN1C(=O)[C@@H]1C[C@@H](F)CN1C(=O)[C@@H]1CCCN1C(=O)[C@H](CO)NC(=O)[C@@H]1CCCN1C(=O)[C@@H]1C[C@H](F)CN1C(=O)[C@@H]1CCCN1C(=O)[C@@H]1CCCN1C(=O)[C@@H]1CCCN1)C(=O)N[C@@H](Cc1ccc(O)cc1)C(=O)N[C@@H](CCCCN)C(=O)O [MpSR] (H-PPP[Pro(cis-4-F)]PSP[Pro(trans-4-F)]PPPRVYK-OH)
kon ([2]; from 19F line widths of (4 R )-FPro8 signal, read-out: association kinetics constant kon, (4 R )-FPro8 signal): 1.2e+08 M⁻¹ s⁻¹
kon ([2]; from 19F line widths of (4 S )-FPro4 signal, read-out: association kinetics constant kon, (4 S )-FPro4 signal): 9e+07 M⁻¹ s⁻¹

B1: MpSR peptide (peptide)
peptide: PPP[Pro(cis-4-F)]PSP[Pro(trans-4-F)]PPPRVYK
notes: P at 4 and 8 stand for fluoroprolines; Two segments of five prolines separated by one serine, followed by RVYK; source: synthetic peptide (Fmoc solid-phase synthesis, reversed-phase HPLC)
Kd [3]: 75 µM
kon [4]: 9e+07 M⁻¹ s⁻¹ and 1.2e+08 M⁻¹ s⁻¹
Kd [5]: 96 ± 30 µM
stoichiometry N [5]: 1

B2: MpRS peptide (peptide)
peptide: PPP[Pro(trans-4-F)]PSP[Pro(cis-4-F)]PPPRVYK
notes: P at 4 and 8 stand for fluoroprolines; source: synthetic peptide (Fmoc solid-phase synthesis, reversed-phase HPLC)
Kd [3]: 220 µM
Kd [5]: 273 ± 30 µM
stoichiometry N [5]: 1

B3: non-fluorinated reference peptide (peptide)
chain: PPPPPSPPPPPRVYK
modifications: Synthetic RAR-gamma-based peptide. Sequence converted from the three-letter residue list in Table 1 (Pro1-5, Ser6, Pro7-11, Arg12-Val13-Tyr14-Lys15), with plain proline at positions 4 and 8. The …
Kd [3]: 74 ± 25 µM

Reference: PMC10539733, “Fluorine NMR study of proline-rich sequences using fluoroprolines” (Magnetic resonance, 2021)
